Consider 26 compounds from US11767322B2 (BRISTOL-MYERS SQUIBB COMPANY, priority 2020, dated 2023).

Like-named read-outs stand apart in the source and are kept apart here.

The target of assay [1] is GST-tagged PIK3Cδ in complex with PIK3R1 (Homo sapiens, UniProt O00329). The assay is described as follows: PI3Kδ HTRF binding assay. Conditions: HTRF probe displacement, 1 h at rt; read-out: PIK3CD IC50.
The test system of assay [2] is MLKL phosphorylation in HT29-L23 human colorectal adenocarcinoma cells. The assay is described as follows: MLKL phosphorylation high-content assay. Type of assay: cell-based.
[3] abbreviates: Homo sapiens, 6 h, HT29-L23 cells, necroptosis induced with TNFα, SMAC mimetic and Z-VAD, 6 h, maximal inhibition defined by Nec1s, read-out: pMLKL IC50.
[4] abbreviates: HT29-L23 cells, necroptosis induced with TNFα, SMAC mimetic and Z-VAD, 6 h, maximal inhibition defined by Nec1s, read-out: pMLKL IC50.
The mark [5] stands for this setting: Table 22, compounds of the present invention, read-out: pMLKL IC50.
[6] abbreviates: read-out: pMLKL IC50, HT29-L23 cells, necroptosis induced with TNFα, SMAC mimetic and Z-VAD, 6 h, maximal inhibition defined by Nec1s.

Chain of GST-tagged PIK3Cδ in complex with PIK3R1 (O00329 whole entry): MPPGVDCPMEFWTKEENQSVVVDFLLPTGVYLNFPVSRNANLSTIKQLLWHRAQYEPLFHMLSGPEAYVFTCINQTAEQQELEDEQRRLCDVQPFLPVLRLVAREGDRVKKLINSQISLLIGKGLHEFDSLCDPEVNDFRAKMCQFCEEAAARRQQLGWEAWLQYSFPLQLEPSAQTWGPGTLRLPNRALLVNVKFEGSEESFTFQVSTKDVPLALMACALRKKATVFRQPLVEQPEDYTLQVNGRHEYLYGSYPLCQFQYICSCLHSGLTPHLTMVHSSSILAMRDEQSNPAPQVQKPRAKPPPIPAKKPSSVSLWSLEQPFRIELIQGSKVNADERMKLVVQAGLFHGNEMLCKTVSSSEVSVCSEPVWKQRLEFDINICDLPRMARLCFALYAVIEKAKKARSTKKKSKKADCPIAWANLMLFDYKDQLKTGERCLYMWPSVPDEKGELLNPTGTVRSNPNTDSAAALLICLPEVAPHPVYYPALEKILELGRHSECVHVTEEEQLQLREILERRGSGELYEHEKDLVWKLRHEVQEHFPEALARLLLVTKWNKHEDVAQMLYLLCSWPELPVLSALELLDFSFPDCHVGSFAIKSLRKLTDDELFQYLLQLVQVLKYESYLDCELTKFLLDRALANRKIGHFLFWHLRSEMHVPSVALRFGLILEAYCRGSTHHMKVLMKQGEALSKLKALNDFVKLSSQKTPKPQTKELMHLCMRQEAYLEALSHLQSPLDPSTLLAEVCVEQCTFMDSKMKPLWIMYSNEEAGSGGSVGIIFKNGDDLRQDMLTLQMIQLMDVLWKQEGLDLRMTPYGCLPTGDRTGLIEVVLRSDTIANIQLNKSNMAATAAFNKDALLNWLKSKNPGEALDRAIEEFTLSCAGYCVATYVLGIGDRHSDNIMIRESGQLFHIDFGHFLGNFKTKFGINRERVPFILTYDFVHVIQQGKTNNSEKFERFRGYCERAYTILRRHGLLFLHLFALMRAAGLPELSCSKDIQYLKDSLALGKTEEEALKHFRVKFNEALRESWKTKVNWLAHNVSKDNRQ
Chain of GST-tagged PIK3Cδ in complex with PIK3R1 (P27986 whole entry partner): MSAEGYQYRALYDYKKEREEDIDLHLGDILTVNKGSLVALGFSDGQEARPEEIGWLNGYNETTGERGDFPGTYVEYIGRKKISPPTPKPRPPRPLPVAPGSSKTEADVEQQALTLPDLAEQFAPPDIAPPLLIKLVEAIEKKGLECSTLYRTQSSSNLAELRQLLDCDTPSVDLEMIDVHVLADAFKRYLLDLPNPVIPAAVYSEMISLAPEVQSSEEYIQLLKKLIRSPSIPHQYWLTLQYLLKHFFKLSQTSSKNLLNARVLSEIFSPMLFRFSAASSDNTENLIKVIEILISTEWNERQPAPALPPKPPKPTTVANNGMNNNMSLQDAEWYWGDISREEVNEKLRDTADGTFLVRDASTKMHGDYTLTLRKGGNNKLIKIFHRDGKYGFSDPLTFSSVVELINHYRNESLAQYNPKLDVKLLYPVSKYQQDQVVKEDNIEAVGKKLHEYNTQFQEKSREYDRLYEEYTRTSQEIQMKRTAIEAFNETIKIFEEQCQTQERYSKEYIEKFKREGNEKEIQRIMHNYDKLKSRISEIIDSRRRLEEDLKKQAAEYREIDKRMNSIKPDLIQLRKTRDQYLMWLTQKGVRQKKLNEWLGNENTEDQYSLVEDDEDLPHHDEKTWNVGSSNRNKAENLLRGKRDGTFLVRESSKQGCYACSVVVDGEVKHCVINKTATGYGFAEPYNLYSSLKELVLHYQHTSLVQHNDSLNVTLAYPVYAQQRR

As to `Cc1ccc(-c2ccn3nc(N)nc3c2)c(F)c1C(=O)NCC(F)(F)C(O)c1ccc(Cl)c(Cl)c1` (single isomer, unassigned) [Example 113, 3-{2-amino-[1,2,4]triazolo[1,5-a]pyridin-7-yl}-N-[3-(3,4-dichlorophenyl)-2,2-difluoro-3-hydroxypropyl]-2-fluoro-6-methylbenzamide], the concentration for half-maximal inhibition (IC50) in assay [1] was over 15 µM. In the case of `CC(O)(CCNC(=O)c1cc(-c2ccn3nc(N)nc3c2)ccc1Cl)c1ccccc1` (centres unmarked) [Example 93, 5-(2-amino-[1,2,4]triazolo[1,5-a]pyridin-7-yl)-2-chloro-N-(3-hydroxy-3-phenylbutyl)benzamide], the figures for the IC50 in assay [1] and in assay [2] (setting [3]) were 11 µM and 256 nM, respectively.

Turning to `Cc1ccc(-c2ccn3nc(N)nc3c2)c(F)c1C(=O)NCC(F)(F)C(O)c1ccc(Cl)c(Cl)c1` (single isomer, unassigned) [Example 112, 3-{2-amino-[1,2,4]triazolo[1,5-a]pyridin-7-yl}-N-[3-(3,4-dichlorophenyl)-2,2-difluoro-3-hydroxypropyl]-2-fluoro-6-methylbenzamide], in assay [1], the IC50 is over 15 µM.

On to `Cc1ccc(-c2ccn3nc(N)nc3c2)c(F)c1C(=O)NC(C)CC(O)c1ccc(Cl)cc1` (racemic) [Example 20, 3-(2-amino-[1,2,4]triazolo[1,5-a]pyridin-7-yl)-N-[4-(4-chlorophenyl)-4-hydroxybutan-2-yl]-2-fluoro-6-methylbenzamide], for which the IC50 was over 15 µM in assay [1], 3.6 nM in assay [2] (setting [4]) and 3.6 nM in assay [2] (setting [5]). Regarding `Cc1ccc(-c2ccn3nc(N)nc3c2)c(F)c1C(=O)NC(CF)CC(O)c1ccc(Cl)cc1` (single isomer, unassigned) [Example 24, 3-(2-amino-[1,2,4]triazolo[1,5-a]pyridin-7-yl)-N-(4-(4-chlorophenyl)-1-fluoro-4-hydroxybutan-2-yl)-2-fluoro-6-methylbenzamide], the IC50 in assay [1] is over 15 µM. Take `Cc1ccc(-c2ccn3nc(N)nc3c2)c(F)c1C(=O)NCCC(=O)c1ccc(Cl)cc1` [Example 143, 3-{2-amino-[1,2,4]triazolo[1,5-a]pyridin-7-yl}-N-[3-(4-chlorophenyl)-3-oxopropyl]-2-fluoro-6-methylbenzamide]: the IC50 is over 15 µM in assay [1]; 2.4 nM in assay [2] (Homo sapiens, 6 h, read-out: pMLKL IC50, HT29-L23 cells, necroptosis induced with TNFα, SMAC mimetic and Z-VAD, 6 h, maximal inhibition defined by Nec1s). On to `Cc1cc(F)c(-c2ccn3nc(N)nc3c2)cc1C(=O)NCCC(O)c1ccc(C(F)(F)F)cc1` (racemic) [Example 2, 5-(2-amino-[1,2,4]triazolo[1,5-a]pyridin-7-yl)-4-fluoro-N-(3-hydroxy-3-(4-(trifluoromethyl)phenyl)propyl)-2-methylbenzamide], for which the IC50 in assay [1] was over 15 µM.

Turning to `Cc1ccc(-c2ccn3nc(N)nc3c2)c(F)c1C(=O)NCC[C@H](O)c1ccc(C#N)cc1` [Example 139, 3-{2-amino-[1,2,4]triazolo[1,5-a]pyridin-7-yl}-N-[(3S)-3-(4-cyanophenyl)-3-hydroxypropyl]-2-fluoro-6-methylbenzamide], the IC50 in assay [1] is over 15 µM; in assay [2] (setting [3]) it was 7.4 nM. In the case of `Cc1ccc(-c2ccn3nc(N)nc3c2)c(F)c1C(=O)NC[C@@H](F)[C@H](O)c1ccc(Cl)cc1` (single isomer, unassigned) [Example 303], the IC50 in assay [1] was over 15 µM. For the compound `Cc1ccc(-c2ccn3nc(N)nc3c2)c(F)c1C(=O)NCC(F)(F)C(O)C1CC(F)(F)C1` (centres unmarked) [Example 258, 3-(2-amino-[1,2,4]triazolo[1,5-a]pyridin-7-yl)-N-(3-(3,3-difluorocyclobutyl)-2,2-difluoro-3-hydroxypropyl)-2-fluoro-6-methylbenzamide], the IC50 in assay [1] is over 15 µM. Take `Cc1cc(Cl)c(-c2ccn3nc(N)nc3c2)cc1C(=O)NCC[C@H](O)c1ccc(Cl)cc1` [Example 144, (S)-5-(2-amino-[1,2,4]triazolo[1,5-a]pyridin-7-yl)-4-chloro-N-(3-(4-chlorophenyl)-3-hydroxypropyl)-2-methylbenzamide]: the IC50 in assay [1] is over 15 µM; in assay [2] (setting [3]) it was 4.2 nM.

`Cc1cc(F)c(-c2ccn3nc(N)nc3c2)cc1C(=O)NCCC(O)c1ccc(C(F)(F)F)cc1` (single isomer, unassigned) [Example 4, 5-(2-amino-[1,2,4]triazolo[1,5-a]pyridin-7-yl)-4-fluoro-N-(3-hydroxy-3-(4-(trifluoromethyl)phenyl)propyl)-2-methylbenzamide]: the IC50 in assay [1] was over 15 µM; in assay [2] (setting [6]), 1 nM. For the compound `Cc1ccc(-c2ccn3nc(N)nc3c2)c(F)c1C(=O)NC(C)CC(O)c1ccc(Cl)cc1` (racemic) [Example 19, 3-(2-amino-[1,2,4]triazolo[1,5-a]pyridin-7-yl)-N-[4-(4-chlorophenyl)-4-hydroxybutan-2-yl]-2-fluoro-6-methylbenzamide], the figures for the IC50 in assay [1], in assay [2] (setting [4]) and in assay [2] (setting [5]) were over 15 µM, 7.7 nM and 7.7 nM, respectively. `Cc1c(C(=O)NC(C)CC(O)c2ccc(Cl)cc2)cc(-c2ccn3nc(N)nc3c2)c(F)c1F` (racemic) [Example 100, 5-(2-amino-[1,2,4]triazolo[1,5-a]pyridin-7-yl)-N-(4-(4-chlorophenyl)-4-hydroxybutan-2-yl)-3,4-difluoro-2-methylbenzamide]: the half-maximal inhibitory concentration (IC50) in assay [1] was over 15 µM; in assay [2] (setting [6]) it was 27 nM. With `Cc1ccc(-c2ccn3nc(N)nc3c2)c(F)c1C(=O)NC[C@H](F)[C@@H](O)c1ccc(Cl)cc1` (single isomer, unassigned) [Example 302], in assay [1], the IC50 was over 15 µM. As to `Cc1c(C(=O)NC(CF)CC(O)c2ccc(Cl)cc2)cc(-c2ccn3nc(N)nc3c2)c(F)c1F` (racemic) [Example 102, 5-(2-amino-[1,2,4]triazolo[1,5-a]pyridin-7-yl)-N-(4-(4-chlorophenyl)-1-fluoro-4-hydroxybutan-2-yl)-3,4-difluoro-2-methylbenzamide], the IC50 in assay [1] is over 15 µM; in assay [2] (setting [4]), 7.6 nM. On to `Nc1nc2cc(-c3c(F)ccc(C(=O)NCC[C@@H](O)c4ccc(Cl)cc4)c3F)ccn2n1` [Example 220, (R)-3-(2-amino-[1,2,4]triazolo[1,5-a]pyridin-7-yl)-N-(3-(4-chlorophenyl)-3-hydroxypropyl)-2,4-difluorobenzamide], for which the IC50 was over 15 µM in assay [1] and 36 nM in assay [2] (setting [3]). In the case of `Cc1ccc(-c2ccn3nc(N)nc3c2)c(F)c1C(=O)NCC(F)(F)C(O)C1CC(F)(F)C1` (centres unmarked) [Example 259, 3-(2-amino-[1,2,4]triazolo[1,5-a]pyridin-7-yl)-N-(3-(3,3-difluorocyclobutyl)-2,2-difluoro-3-hydroxypropyl)-2-fluoro-6-methylbenzamide], the IC50 in assay [1] is over 15 µM.

As to `Cc1ccc(-c2ccn3nc(N)nc3c2)c(F)c1C(=O)NCCC(O)c1ccc(Cl)cn1` (single isomer, unassigned) [Example 47, 3-(2-amino-[1,2,4]triazolo[1,5-a]pyridin-7-yl)-N-(3-(5-chloropyridin-2-yl)-3-hydroxypropyl)-2-fluoro-6-methylbenzamide], the IC50 in assay [1] is over 15 µM.

For `Nc1nc2cc(-c3ccc(Cl)c(C(=O)NCC[C@@H](O)c4ccc(Cl)cc4)c3)ccn2n1` [Example 90, (R)-5-(2-amino-[1,2,4]triazolo[1,5-a]pyridin-7-yl)-2-chloro-N-(3-(4-chlorophenyl)-3-hydroxypropyl)benzamide], the IC50 in assay [1] is over 15 µM; in assay [2] (setting [3]), 15 nM. The corresponding values for `Nc1nc2cc(-c3c(F)ccc(C(=O)NCC[C@H](O)c4ccc(Cl)cc4)c3F)ccn2n1` [Example 219, (S)-3-(2-amino-[1,2,4]triazolo[1,5-a]pyridin-7-yl)-N-(3-(4-chlorophenyl)-3-hydroxypropyl)-2,4-difluorobenzamide] are over 15 µM and 42 nM. The like results for `Nc1nc2cc(-c3ccc(Cl)c(C(=O)NCC[C@H](O)c4ccc(Cl)cc4)c3)ccn2n1` [Example 91, (S)-5-(2-amino-[1,2,4]triazolo[1,5-a]pyridin-7-yl)-2-chloro-N-(3-(4-chlorophenyl)-3-hydroxypropyl)benzamide] were, in that order, 8 µM and 34 nM. Take `Cc1c(C(=O)NC(CF)CC(O)c2ccc(Cl)cc2)cc(-c2ccn3nc(N)nc3c2)c(F)c1F` (racemic) [Example 103, 5-(2-amino-[1,2,4]triazolo[1,5-a]pyridin-7-yl)-N-(4-(4-chlorophenyl)-1-fluoro-4-hydroxybutan-2-yl)-3,4-difluoro-2-methylbenzamide]: the figures for the IC50 in assay [1] and in assay [2] (setting [4]) were over 15 µM and 2060 nM, respectively.

Consider `Cc1ccc(-c2ccn3nc(N)nc3c2)c(F)c1C(=O)NC(CF)CC(O)c1ccc(Cl)cc1` (single isomer, unassigned) [Example 23, 3-(2-amino-[1,2,4]triazolo[1,5-a]pyridin-7-yl)-N-(4-(4-chlorophenyl)-1-fluoro-4-hydroxybutan-2-yl)-2-fluoro-6-methylbenzamide], for which, in assay [1], the IC50 is over 15 µM. Take `Cc1ccc(-c2ccn3nc(N)nc3c2)c(F)c1C(=O)NCCC(O)c1ccc(F)c(F)c1` (single isomer, unassigned) [Example 66, 3-(2-amino-[1,2,4]triazolo[1,5-a]pyridin-7-yl)-N-(3-(3,4-difluorophenyl)-3-hydroxypropyl)-2-fluoro-6-methylbenzamide]: the IC50 is over 15 µM in assay [1]; 1.2 nM in assay [2] (setting [3]); 1.2 nM in assay [2] (Homo sapiens, Table 22, compounds of the present invention, read-out: pMLKL IC50). Consider `Cc1cc(F)c(-c2ccn3nc(N)nc3c2)cc1C(=O)NCCC(O)c1ccc(C(F)(F)F)cc1` (single isomer, unassigned) [Example 3, 5-(2-amino-[1,2,4]triazolo[1,5-a]pyridin-7-yl)-4-fluoro-N-(3-hydroxy-3-(4-(trifluoromethyl)phenyl)propyl)-2-methylbenzamide], for which the IC50 in assay [1] is over 15 µM.
